Measured values from PubChem BioAssay (NCI).
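Following 48 hours of exposure in 96-well plates, responses at five concentrations were used to interpolate endpoints linearly. Here, GI50 denotes the concentration required for 50% inhibition of growth. Definition used: TGI = concentration required for complete inhibition of growth.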

How the values were obtained:
Assay in all cases: NCI tumour cell line growth inhibition, 48 h
[1] = tested on: SR leukemia
[2] = tested on: TK-10 renal
[3] = tested on: MALME-3M melanoma
[4] = tested on: MCF7 breast
[5] = tested on: LOX IMVI melanoma
[6] = tested on: DU-145 prostate
[7] = tested on: SK-MEL-2 melanoma
[8] = tested on: MOLT-4 leukemia
[9] = tested on: ACHN renal
[10] = tested on: M14 melanoma
[11] = tested on: RPMI-8226 leukemia
[12] = tested on: MDA-MB-435
[13] = tested on: HCC-2998 colon
[14] = tested on: T-47D breast
[15] = tested on: CCRF-CEM leukemia
[16] = tested on: COLO 205 colon
[17] = tested on: SW-620 colon
[18] = tested on: UO-31 renal
[19] = tested on: NCI-H226 lung
[20] = tested on: SK-MEL-28 melanoma
[21] = tested on: NCI-H460 lung
[22] = tested on: SNB-75 CNS
[23] = tested on: HCT-15 colon
[24] = tested on: BT-549 breast
[25] = tested on: OVCAR-8 ovarian
[26] = tested on: NCI-H522 lung
[27] = tested on: OVCAR-3 ovarian
[28] = tested on: HT29 colon
[29] = tested on: UACC-257 melanoma
[30] = tested on: K-562 leukemia
[31] = tested on: KM12 colon
[32] = tested on: SF-539 CNS
[33] = tested on: SN12C renal
[34] = tested on: IGROV1 ovarian
[35] = tested on: SK-OV-3 ovarian
[36] = tested on: HL-60(TB) leukemia
[37] = tested on: EKVX NSCLC
[38] = tested on: SF-295 CNS
[39] = tested on: NCI/ADR-RES ovarian
[40] = tested on: HCT-116 colon
[41] = tested on: SF-268 CNS
[42] = tested on: HOP-92 NSCLC
[43] = tested on: U251 CNS
[44] = tested on: OVCAR-5 ovarian
[45] = tested on: MDA-MB-231 breast
[46] = tested on: HS 578T breast
[47] = tested on: RXF 393 renal
[48] = tested on: A549 NSCLC
[49] = tested on: PC-3 prostate
[50] = tested on: 786-0 renal
[51] = tested on: A498 renal
[52] = tested on: UACC-62 melanoma
[53] = tested on: SNB-19 CNS
[54] = tested on: OVCAR-4 ovarian
[55] = tested on: CAKI-1 renal
[56] = tested on: HOP-62 NSCLC
[57] = tested on: SK-MEL-5 melanoma
[58] = tested on: NCI-H23 lung

Work on `O=C(Nc1cccc(Cl)c1)c1cc(Cl)ccc1O` yielded a GI50 [1] of 0.457 µM, a TGI [1] of 2.96 µM and a GI50 [2] of 4.36 µM. It also gave a TGI [2] of 12.6 µM, a GI50 [3] of 0.4 µM and a TGI [3] of 2.66 µM. The GI50 [4] was 1.75 µM, the TGI [4] was greater than 26.6 µM and the GI50 [5] was 0.543 µM. For the same compound, the TGI [5] was 2.26 µM, the GI50 [6] was 1.66 µM and the TGI [6] was greater than 54.1 µM. It also gave a GI50 [7] of 0.294 µM, a TGI [7] of 0.918 µM and a GI50 [8] of 1.84 µM. For the same compound, the TGI [8] was 5.04 µM, the GI50 [9] was 1.14 µM and the TGI [9] was 10.6 µM. For the same compound, the GI50 [10] was 0.851 µM, the TGI [10] was 5.4 µM and the GI50 [11] was 0.375 µM. The TGI [11] was 2.18 µM, the GI50 [12] was 0.661 µM and the TGI [12] was 5.99 µM. It also gave a GI50 [13] of 2.94 µM, a TGI [13] greater than 29.6 µM and a GI50 [14] of 1.24 µM. The TGI [14] was 7.38 µM, the GI50 [15] was 2.82 µM and the TGI [15] was 22 µM. For the same compound, the GI50 [16] was 2.64 µM, the TGI [16] was 6.71 µM and the GI50 [17] was 1.36 µM. For the same compound, the TGI [17] was 9.85 µM, the GI50 [18] was 0.369 µM and the TGI [18] was 7.08 µM. It also gave a GI50 [19] of 1.05 µM, a TGI [19] of 4.12 µM and a GI50 [20] of 0.415 µM. It also gave a TGI [20] of 3.77 µM, a GI50 [21] of 0.488 µM and a TGI [21] of 6.4 µM. For the same compound, the GI50 [22] was 0.756 µM, the TGI [22] was 3.86 µM and the GI50 [23] was 1.34 µM. For the same compound, the GI50 [24] was 0.362 µM, the TGI [24] was 1.29 µM and the GI50 [25] was 1.51 µM. For the same compound, the TGI [25] was 5.43 µM, the GI50 [26] was 0.32 µM and the TGI [26] was 1.78 µM. It also gave a GI50 [27] of 1.04 µM, a TGI [27] greater than 100 µM and a GI50 [28] of 2.49 µM. It also gave a TGI [28] of 7.12 µM, a GI50 [29] of 0.41 µM and a TGI [29] of 2.87 µM. For the same compound, the GI50 [30] was 0.542 µM, the TGI [30] was greater than 100 µM and the GI50 [31] was 2.39 µM. It also gave a TGI [31] of 6.87 µM, a GI50 [32] of 0.674 µM and a TGI [32] of 12.4 µM. The GI50 [33] was 0.491 µM, the TGI [33] was 4.15 µM and the GI50 [34] was 1.61 µM. It also gave a TGI [34] greater than 58 µM, a GI50 [35] of 0.582 µM and a TGI [35] of 2.81 µM. It also gave a GI50 [36] of 0.561 µM, a TGI [36] of 3.6 µM and a GI50 [37] of 1.83 µM. It also gave a TGI [37] greater than 26.3 µM, a GI50 [38] of 1.21 µM and a TGI [38] of 3.75 µM. The GI50 [39] was 1.64 µM, the TGI [39] was greater than 29.4 µM and the GI50 [40] was 0.562 µM. The TGI [40] was 2.12 µM, the GI50 [41] was 1.21 µM and the TGI [41] was greater than 40.3 µM. For the same compound, the GI50 [42] was 0.169 µM, the TGI [42] was 0.571 µM and the GI50 [43] was 0.841 µM. It also gave a TGI [43] greater than 38.2 µM, a GI50 [44] of 3.48 µM and a TGI [44] greater than 100 µM. It also gave a GI50 [45] of 1.15 µM, a TGI [45] of 8.23 µM and a GI50 [46] of 0.282 µM. The TGI [46] was 1.46 µM, the GI50 [47] was 0.849 µM and the TGI [47] was 4.27 µM. The GI50 [48] was 2.67 µM, the TGI [48] was greater than 79.3 µM and the GI50 [49] was 2.6 µM. It also gave a TGI [49] greater than 25.2 µM, a GI50 [50] of 1.63 µM and a TGI [50] of 6.18 µM. It also gave a GI50 [51] of 0.256 µM, a TGI [51] of 0.764 µM and a GI50 [52] of 0.282 µM. For the same compound, the TGI [52] was 1.21 µM, the GI50 [53] was 0.481 µM and the TGI [53] was 36.6 µM. For the same compound, the GI50 [54] was 1.46 µM, the TGI [54] was greater than 100 µM and the GI50 [55] was 0.837 µM. The TGI [55] was 5.79 µM, the GI50 [56] was 1.33 µM and the TGI [56] was 4.03 µM. It also gave a GI50 [57] of 0.274 µM, a TGI [57] of 0.857 µM and a GI50 [58] of 0.486 µM. The TGI [58] was 3.55 µM.
